Source: BindingDB's records for doi:10.1016/j.bioorg.2015.02.002 (Bezmialem Vakif University, 2015)

Experiments:
Acetylcholinesterase = Acetylcholinesterase (Electrophorus electricus, UniProt O42275); experiment: Anticholinesterase Activity Assays; settings: pH 8
Procedure: (§1) The substrates of the reaction were acetylthiocholine iodide and butyrylthiocholine iodide. 5,5'-dithio-bis(2-nitrobenzoic) acid (DTNB) was used for the measurement of the anticholinesterase activity. The solutions of the samples and galantamine in n-propanol were prepared at concentration of 4000 µg/mL. […] 10 µL of DTNB solution was prepared by adding 2.0 mL of pH 7.0 and 4.0 mL of pH 8.0 phosphate buffers to a mixture of 1.0 mL of 16 mg/mL DTNB and 7.5 mg/mL NaHCO3 in pH 7.0 phosphate buffers. The reaction was initiated by the addition of 10 µL (7.1 mM) acetylthiocholine iodide (or 0.79 mM butyrylthiocholine iodide). Propyl alcohol was used as a solvent to controls. The hydrolysis of these substrates was monitored at 412 nm.

[1] = molecular target: Carboxylic ester hydrolase (Equus caballus, UniProt Q9N1N9); experiment: Anticholinesterase Activity Assays; settings: pH 8
Sequence of Carboxylic ester hydrolase (Q9N1N9 whole entry): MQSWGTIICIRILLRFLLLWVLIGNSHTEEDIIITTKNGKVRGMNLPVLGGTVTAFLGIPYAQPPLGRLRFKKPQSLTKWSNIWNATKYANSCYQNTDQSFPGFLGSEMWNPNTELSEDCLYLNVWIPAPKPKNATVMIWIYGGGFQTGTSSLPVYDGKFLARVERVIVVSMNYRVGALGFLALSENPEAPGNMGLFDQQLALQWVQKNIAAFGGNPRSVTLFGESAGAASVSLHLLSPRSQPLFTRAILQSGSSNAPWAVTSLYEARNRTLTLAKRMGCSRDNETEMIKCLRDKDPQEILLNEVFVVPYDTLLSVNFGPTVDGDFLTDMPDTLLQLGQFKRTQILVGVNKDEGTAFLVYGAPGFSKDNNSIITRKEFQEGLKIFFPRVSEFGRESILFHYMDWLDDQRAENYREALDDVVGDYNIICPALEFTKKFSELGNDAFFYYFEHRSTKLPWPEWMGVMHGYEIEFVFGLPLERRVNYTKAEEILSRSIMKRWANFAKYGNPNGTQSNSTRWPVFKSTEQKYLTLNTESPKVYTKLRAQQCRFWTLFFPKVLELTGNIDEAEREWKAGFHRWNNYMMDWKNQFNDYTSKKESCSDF
Procedure: as §1

Sequence of Acetylcholinesterase (O42275 whole entry): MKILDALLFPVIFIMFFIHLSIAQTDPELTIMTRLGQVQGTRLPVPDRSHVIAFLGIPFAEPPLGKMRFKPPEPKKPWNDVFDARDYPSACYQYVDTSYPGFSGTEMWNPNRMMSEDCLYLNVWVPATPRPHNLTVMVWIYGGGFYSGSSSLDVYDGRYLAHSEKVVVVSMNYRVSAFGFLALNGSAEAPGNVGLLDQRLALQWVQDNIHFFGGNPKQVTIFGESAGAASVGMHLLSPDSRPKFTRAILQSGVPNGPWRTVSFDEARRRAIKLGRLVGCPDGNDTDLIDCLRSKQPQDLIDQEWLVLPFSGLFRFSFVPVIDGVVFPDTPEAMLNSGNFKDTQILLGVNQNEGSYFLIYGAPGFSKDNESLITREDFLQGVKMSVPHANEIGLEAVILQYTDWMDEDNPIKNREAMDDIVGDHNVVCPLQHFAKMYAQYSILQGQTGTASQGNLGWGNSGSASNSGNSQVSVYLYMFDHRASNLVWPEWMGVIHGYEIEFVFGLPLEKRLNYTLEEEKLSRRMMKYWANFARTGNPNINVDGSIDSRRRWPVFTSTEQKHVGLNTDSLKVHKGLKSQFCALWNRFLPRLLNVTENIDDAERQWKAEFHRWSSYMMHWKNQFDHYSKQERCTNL

| SMILES | IC50 (Acetylcholinesterase) | IC50 [1] |
| --- | --- | --- |
| COc1cccc2cc(-c3csc(NC(=O)Nc4ccccc4F)n3)c(=O)oc12 [1-(2-Fluorophenyl)-3-(4-(8-methoxy-2-oxo-2H-chromen-3-yl)thiazol-2-yl)urea (e20)] | 66.2 µM | 79.6 µM |
| O=C(Nc1nc(-c2cc3ccccc3oc2=O)cs1)Nc1ccccc1F [1-(2-Flurophenyl)-3-(4-(2-oxo-2H-chromen-3-yl)thiazol-2-yl)urea (e7)] | 31.5 µM | 34.5 µM |
| COc1ccccc1NC(=O)Nc1nc(-c2cc3ccccc3oc2=O)cs1 [1-(2-Methoxyphenyl)-3-(4-(2-oxo-2H-chromen-3-yl)thiazol-2-yl)urea (e1)] | 38 µM | 30.3 µM |
| O=C(Nc1cccc(Cl)c1)Nc1nc(-c2cc3ccccc3oc2=O)cs1 [1-(3-Chlorophenyl)-3-(4-(2-oxo-2H-chromen-3-yl)thiazol-2-yl)urea (e10)] | 111 µM | 66.6 µM |
| O=c1oc2ccccc2cc1-c1csc(NC(=S)Nc2cccc(F)c2)n1 [1-(3-Fluorophenyl)-3-(4-(2-oxo-2H-chromen-3-yl)thiazol-2-yl)thiourea (f1)] | 16.4 µM | 20.8 µM |
| O=C(Nc1cccc(F)c1)Nc1nc(-c2cc3ccccc3oc2=O)cs1 [1-(3-Fluorophenyl)-3-(4-(2-oxo-2H-chromen-3-yl)thiazol-2-yl)urea (e8)] | 58.1 µM | 62.2 µM |
| COc1cccc2cc(-c3csc(NC(=O)Nc4cccc(F)c4)n3)c(=O)oc12 [1-(3-Fluorophenyl)-3-(4-(8-methoxy-2-oxo-2H-chromen-3-yl)thiazol-2-yl)urea (e21)] | 67 µM | 110 µM |
| COc1cccc(NC(=O)Nc2nc(-c3cc4ccccc4oc3=O)cs2)c1 [1-(3-Methoxyphenyl)-3-(4-(2-oxo-2H-chromen-3-yl)thiazol-2-yl)urea (e2)] | 52.8 µM | 75 µM |
| COc1cccc(NC(=O)Nc2nc(-c3cc4cc([N+](=O)[O-])ccc4oc3=O)cs2)c1 [1-(3-Methoxyphenyl)-3-(4-(6-nitro-2-oxo-2H-chromen-3-yl)thiazol-2-yl)urea (e27)] | 38.7 µM | 77.5 µM |
| Cc1ccc(NC(=O)Nc2nc(-c3cc4cc([N+](=O)[O-])ccc4oc3=O)cs2)cc1 [1-(4-(6-Nitro-2-oxo-2H-chromen-3-yl)thiazol-2-yl)-3-(ptolyl)urea (e29)] | 93.9 µM | 195 µM |
| O=C(Nc1ccccc1)Nc1nc(-c2cc3cc([N+](=O)[O-])ccc3oc2=O)cs1 [1-(4-(6-Nitro-2-oxo-2H-chromen-3-yl)thiazol-2-yl)-3-phenylurea (e30)] | 103 µM | 84.5 µM |
| COc1cccc2cc(-c3csc(NC(=O)Nc4cccc(Cl)c4)n3)c(=O)oc12 [1-(4-(8-Methoxy-2-oxo-2H-chromen-3-yl)thiazol-2-yl)-3-(3-chlorophenyl)urea (e23)] | 105 µM | 62.9 µM |
| COc1cccc2cc(-c3csc(NC(=S)Nc4cccc(F)c4)n3)c(=O)oc12 [1-(4-(8-Methoxy-2-oxo-2H-chromen-3-yl)thiazol-2-yl)-3-(3-fluorophenyl)thiourea (f6)] | 18.4 µM | 18 µM |
| COc1cccc(NC(=O)Nc2nc(-c3cc4cccc(OC)c4oc3=O)cs2)c1 [1-(4-(8-Methoxy-2-oxo-2H-chromen-3-yl)thiazol-2-yl)-3-(3-methoxyphenyl)urea (e14)] | 83.8 µM | 56.5 µM |
| COc1cccc2cc(-c3csc(NC(=O)Nc4cccc([N+](=O)[O-])c4)n3)c(=O)oc12 [1-(4-(8-Methoxy-2-oxo-2H-chromen-3-yl)thiazol-2-yl)-3-(3-nitrophenyl)urea (e18)] | 90 µM | 78.4 µM |
| COc1cccc2cc(-c3csc(NC(=S)Nc4ccc(Cl)cc4)n3)c(=O)oc12 [1-(4-(8-Methoxy-2-oxo-2H-chromen-3-yl)thiazol-2-yl)-3-(4-chlorophenyl)thiourea (f8)] | 4.58 µM | 12.1 µM |
| COc1cccc2cc(-c3csc(NC(=O)Nc4ccc(Cl)cc4)n3)c(=O)oc12 [1-(4-(8-Methoxy-2-oxo-2H-chromen-3-yl)thiazol-2-yl)-3-(4-chlorophenyl)urea (e24)] | 107 µM | 70.6 µM |
| COc1cccc2cc(-c3csc(NC(=S)Nc4ccc(F)cc4)n3)c(=O)oc12 [1-(4-(8-Methoxy-2-oxo-2H-chromen-3-yl)thiazol-2-yl)-3-(4-fluorophenyl)thiourea (f7)] | 23.3 µM | 46.1 µM |
| COc1ccc(NC(=S)Nc2nc(-c3cc4cccc(OC)c4oc3=O)cs2)cc1 [1-(4-(8-Methoxy-2-oxo-2H-chromen-3-yl)thiazol-2-yl)-3-(4-methoxyphenyl)thiourea (f3)] | 41.2 µM | 31.2 µM |
| COc1ccc(NC(=O)Nc2nc(-c3cc4cccc(OC)c4oc3=O)cs2)cc1 [1-(4-(8-Methoxy-2-oxo-2H-chromen-3-yl)thiazol-2-yl)-3-(4-methoxyphenyl)urea (e15)] | 119 µM | 99.6 µM |

| SMILES | IC50 (Acetylcholinesterase) | IC50 [1] |
| --- | --- | --- |
| COc1cccc2cc(-c3csc(NC(=O)Nc4ccc([N+](=O)[O-])cc4)n3)c(=O)oc12 [1-(4-(8-Methoxy-2-oxo-2H-chromen-3-yl)thiazol-2-yl)-3-(4-nitrophenyl)urea (e19)] | 46.5 µM | 83.7 µM |
| COc1cccc2cc(-c3csc(NC(=S)Nc4ccc(C)cc4)n3)c(=O)oc12 [1-(4-(8-Methoxy-2-oxo-2H-chromen-3-yl)thiazol-2-yl)-3-(ptolyl)thiourea (f4)] | 51.9 µM | 36.5 µM |
| COc1cccc2cc(-c3csc(NC(=O)Nc4ccc(C)cc4)n3)c(=O)oc12 [1-(4-(8-Methoxy-2-oxo-2H-chromen-3-yl)thiazol-2-yl)-3-(ptolyl)urea (e16)] | 82.1 µM | 95.6 µM |
| COc1cccc2cc(-c3csc(NC(=S)Nc4ccccc4)n3)c(=O)oc12 [1-(4-(8-Methoxy-2-oxo-2H-chromen-3-yl)thiazol-2-yl)-3-phenylthiourea (f5)] | 46 µM | 21.8 µM |
| COc1cccc2cc(-c3csc(NC(=O)Nc4ccccc4)n3)c(=O)oc12 [1-(4-(8-Methoxy-2-oxo-2H-chromen-3-yl)thiazol-2-yl)-3-phenylurea (e17)] | 84.1 µM | 77.5 µM |
| O=C(Nc1ccc(Br)cc1)Nc1nc(-c2cc3ccccc3oc2=O)cs1 [1-(4-Bromophenyl)-3-(4-(2-oxo-2H-chromen-3-yl)thiazol-2-yl)urea (e12)] | 121 µM | 95.4 µM |
| O=C(Nc1ccc(Br)cc1)Nc1nc(-c2cc3cc([N+](=O)[O-])ccc3oc2=O)cs1 [1-(4-Bromophenyl)-3-(4-(6-nitro-2-oxo-2H-chromen-3-yl)thiazol-2-yl)urea (e33)] | 46.2 µM | 92.5 µM |
| COc1cccc2cc(-c3csc(NC(=O)Nc4ccc(Br)cc4)n3)c(=O)oc12 [1-(4-Bromophenyl)-3-(4-(8-methoxy-2-oxo-2H-chromen-3-yl)thiazol-2-yl)urea (e25)] | 69.1 µM |  |
| O=c1oc2ccccc2cc1-c1csc(NC(=S)Nc2ccc(Cl)cc2)n1 [1-(4-Chlorophenyl)-3-(4-(2-oxo-2H-chromen-3-yl)thiazol-2-yl)thiourea (f2)] | 7.63 µM | 24.3 µM |
| O=C(Nc1ccc(Cl)cc1)Nc1nc(-c2cc3ccccc3oc2=O)cs1 [1-(4-Chlorophenyl)-3-(4-(2-oxo-2H-chromen-3-yl)thiazol-2-yl)urea (e11)] | 38.1 µM | 88.4 µM |
| O=C(Nc1ccc(Cl)cc1)Nc1nc(-c2cc3cc([N+](=O)[O-])ccc3oc2=O)cs1 [1-(4-Chlorophenyl)-3-(4-(6-nitro-2-oxo-2H-chromen-3-yl)thiazol-2-yl)urea (e32)] | 129 µM | 78.3 µM |
| O=C(Nc1ccc(F)cc1)Nc1nc(-c2cc3ccccc3oc2=O)cs1 [1-(4-Fluorophenyl)-3-(4-(2-oxo-2H-chromen-3-yl)thiazol-2-yl)urea (e9)] | 101 µM | 84.9 µM |
| O=C(Nc1ccc(F)cc1)Nc1nc(-c2cc3cc([N+](=O)[O-])ccc3oc2=O)cs1 [1-(4-Fluorophenyl)-3-(4-(6-nitro-2-oxo-2H-chromen-3-yl)thiazol-2-yl)urea (e31)] | 134 µM | 4.93 µM |
| COc1cccc2cc(-c3csc(NC(=O)Nc4ccc(F)cc4)n3)c(=O)oc12 [1-(4-Fluorophenyl)-3-(4-(8-methoxy-2-oxo-2H-chromen-3-yl)thiazol-2-yl)urea (e22)] | 115 µM | 63.3 µM |
| O=C(Nc1ccc(I)cc1)Nc1nc(-c2cc3ccccc3oc2=O)cs1 [1-(4-Iodophenyl)-3-(4-(2-oxo-2H-chromen-3-yl)thiazol-2-yl)urea (e13)] | 91.2 µM | 112 µM |
| O=C(Nc1ccc(I)cc1)Nc1nc(-c2cc3cc([N+](=O)[O-])ccc3oc2=O)cs1 [1-(4-Iodophenyl)-3-(4-(6-nitro-2-oxo-2H-chromen-3-yl)thiazol-2-yl)urea (e34)] | 26.7 µM | 97.5 µM |
| COc1cccc2cc(-c3csc(NC(=O)Nc4ccc(I)cc4)n3)c(=O)oc12 [1-(4-Iodophenyl)-3-(4-(8-methoxy-2-oxo-2H-chromen-3-yl)thiazol-2-yl)urea (e26)] | 61.3 µM | 159 µM |
| COc1ccc(NC(=O)Nc2nc(-c3cc4ccccc4oc3=O)cs2)cc1 [1-(4-Methoxyphenyl)-3-(4-(2-oxo-2H-chromen-3-yl)thiazol-2-yl)urea (e3)] | 95.9 µM | 82.5 µM |
| COc1ccc(NC(=O)Nc2nc(-c3cc4cc([N+](=O)[O-])ccc4oc3=O)cs2)cc1 [1-(4-Methoxyphenyl)-3-(4-(6-nitro-2-oxo-2H-chromen-3-yl)thiazol-2-yl)urea (e28)] | > 200 µM | 118 µM |
| O=C(Nc1ccc([N+](=O)[O-])cc1)Nc1nc(-c2cc3ccccc3oc2=O)cs1 [1-(4-Nitrophenyl)-3-(4-(2-oxo-2H-chromen-3-yl)thiazol-2-yl)urea (e6)] | 74.8 µM | 52.7 µM |
